In test [1] the test system is peripheral blood mononuclear cells derived from a cancer patient. The test can be described thus: CTL induction by peptide from autologous PBMC of cancer patient, IFN-γ production on recognition of target cells (Example 5). The format is cell-based, human. The conditions noted are these: for Recognition of tumor cells by PBMC stimulated in vitro with peptide (IFN-γ production): SW620, CA9-22 and Panc-1 HLA-A2+ tumor cells, result in words; for IFN-γ production from peripheral blood mononuclear cells in recognition of target cells: PBMC stimulated with 10 μM peptide. The text has this: Among the peptides that were able to enhance IFN-γ production from the OK-CTLp or OK-CTL clone in Example 4, those from P1 to P19 were examined for their ability to induce CTL from peripheral blood mononuclear cells derived from a cancer patient. The method for inducing CTL by a peptide was according to the well-known method (J. Exp. Med., 187:277-288, 1998; Cancer Res., 59:4056-4063, 1999.) Specifically, autologous peripheral blood mononuclear cells (PBMC) derived from a cancer patient, from whom OK-CTLp was obtained, were incubated together with the peptide (10 μM.) The cells were re-stimulated at day 10 and 14 after the start of culturing, using autologous PBMCs as an antigen presenting cell (APC) which were pulsed with 10 μM of the same peptide for 2 h and exposed to irradiation (30 gray.) At day 21 after the start of culturing, the cells were collected to test for surface phenotype. In addition, the cells were examined for the recognition of various target cells, using IFN-γ production measured by ELISA when they were cultured together with the target cells as an indicator. As a target cells, SW620 cell, CA9-22 cell, and Panc-1 cell, which are the HLA-A2^+ tumor cells, were used.

Test [2] shares this test system. The description is as above. The test is classed as cell-based, human. The conditions noted are these: PBMC stimulated with 10 μM peptide.

For the sequence “ASLDSDPWV (Designed peptide having an ability to activate HLA-A2 restricted Cytotoxic T lymphocytes) [Peptide P10, Gene 3 (WHSC2) 103-111]”, the “Recognition of tumor cells by PBMC stimulated in vitro with peptide (IFN-γ production)” value (shortened to “Recognition of tumor cells”) in test [1] was “produced IFN-γ in a significant amount”. For the same sequence, the “IFN-γ production from peripheral blood mononuclear cells in recognition of target cells” value (from here on “IFN-γ production … of target cells”) in test [1] (target CA9-22 (HLA-A0207/24)) came out at 130 pg/mL; in test [1] (target Panc-1 (HLA-A0201/11)), 163 pg/mL; in test [1] (target SW620 (HLA-A0201/24)), 108 pg/mL; in test [2] (target COLO320 (HLA-A24/24)), 0 pg/mL; in test [2] (target QG56 (HLA-A26/26)), 0 pg/mL; in test [2] (target RERF-LC-MS (HLA-A11/11)), 0 pg/mL.
Regarding “CLYGNVEKV (Designed peptide having an ability to activate HLA-A2 restricted Cytotoxic T lymphocytes) [Peptide P7, Gene 2 (HNRPL) 404-412]”, in test [1], the “Recognition of tumor cells” value is “induced CTL recognizing any one of the HLA-A2^+ tumor cells”. Further, the “IFN-γ production … of target cells” value in test [1] (target CA9-22 (HLA-A0207/24)) is 0 pg/mL; in test [1] (target Panc-1 (HLA-A0201/11)), 54 pg/mL; in test [1] (target SW620 (HLA-A0201/24)), 344 pg/mL; in test [2] (target COLO320 (HLA-A24/24)) it was 0 pg/mL; in test [2] (target QG56 (HLA-A26/26)), 0 pg/mL; in test [2] (target RERF-LC-MS (HLA-A11/11)), 0 pg/mL.
For DLLSHAFFA [Peptide P18], the “Recognition of tumor cells” value in test [1] is on record as “produced IFN-γ in a significant amount”. Also, the “IFN-γ production … of target cells” value in test [1] (target CA9-22 (HLA-A0207/24)) was 70 pg/mL; in test [1] (target Panc-1 (HLA-A0201/11)) it was greater than 1000 pg/mL; in test [1] (target SW620 (HLA-A0201/24)), greater than 1000 pg/mL; in test [2] (target COLO320 (HLA-A24/24)) it was 0 pg/mL; in test [2] (target QG56 (HLA-A26/26)), 29 pg/mL; in test [2] (target RERF-LC-MS (HLA-A11/11)) it was 0 pg/mL.
Turning to “FMFGQKLNV (Designed peptide having an ability to activate HLA-A2 restricted Cytotoxic T lymphocytes) [Peptide P8, Gene 2 (HNRPL) 443-451]”, the “Recognition of tumor cells” value in test [1] is given as “produced IFN-γ in a significant amount”. Besides, the “IFN-γ production … of target cells” value was determined as 165 pg/mL in test [1] (target CA9-22 (HLA-A0207/24)); 186 pg/mL in test [1] (target Panc-1 (HLA-A0201/11)); 142 pg/mL in test [1] (target SW620 (HLA-A0201/24)); 0 pg/mL in test [2] (target COLO320 (HLA-A24/24)); 0 pg/mL in test [2] (target QG56 (HLA-A26/26)); 26 pg/mL in test [2] (target RERF-LC-MS (HLA-A11/11)).
In the case of “ILGELREKV (Designed peptide having an ability to activate HLA-A2 restricted Cytotoxic T lymphocytes) [Peptide P11, Gene 3 (WHSC2) 141-149]”, in test [1], the “Recognition of tumor cells” value is recorded as “produced IFN-γ in a significant amount”. The “IFN-γ production … of target cells” value in test [1] (target CA9-22 (HLA-A0207/24)) was 62 pg/mL; in test [1] (target Panc-1 (HLA-A0201/11)) it was greater than 1000 pg/mL; in test [1] (target SW620 (HLA-A0201/24)), 893 pg/mL; in test [2] (target COLO320 (HLA-A24/24)), 0 pg/mL; in test [2] (target QG56 (HLA-A26/26)), 0 pg/mL; in test [2] (target RERF-LC-MS (HLA-A11/11)), 0 pg/mL.

These data come from patent US7524930B2, “Tumor antigen” (Green Peptide Co., Ltd, priority 2003, dated 2009).
